Experimental data taken from US9469645B2, “Compounds and compositions for the treatment of parasitic diseases” (Novartis AG, priority 2009, dated 2016).

Experiments:
3D7 P. falciparum strain = assay: parasite proliferation assay in infected red blood cells (SYBR Green I); assay type: cell-based, Plasmodium falciparum; settings: Plasmodium falciparum, 3D7, Erythrocyte, 3D7 strain; read-out: EC50 3D7 strain
Method in brief: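 P. falciparum 3D7 grown in O+ human erythrocytes to 3–8% parasitemia and exposed to compounds. Proliferation read as the increase in parasite DNA. Detection used SYBR Green I in saponin/triton-X/EDTA lysis buffer, with overnight lysis at room temperature.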

W2 strain = assay: parasite proliferation assay in infected red blood cells (SYBR Green I), W2 strain; assay type: cell-based; settings: Erythrocyte
Description: Compounds of the invention can be assayed to measure their capacity to inhibit proliferation of parasitemia in infected red blood cells. The proliferation is quantified by the addition of SYBR Green I (INVITROGEN)® dye which has a high affinity for double stranded DNA.

Structure (SMILES)	EC50 (3D7 P. falciparum strain) [nM]	EC50 (W2 strain) [nM]
CCCCCNCC(=O)N1CCn2c(nc(-c3ccc(F)cc3)c2Nc2ccc(C)cc2)C1 [Compound 308]	60	68
COCCNCC(=O)N1CCn2c(nc(-c3ccc(F)cc3)c2Nc2ccc(C)cc2)C1 [Compound 309]	80	68
COCCCNCC(=O)N1CCn2c(nc(-c3ccc(F)cc3)c2Nc2ccc(C)cc2)C1 [Compound 310]	520	397
N[C@H](Cc1ccccc1)C(=O)N1CCn2c(nc(-c3ccc(F)cc3)c2Nc2ccc(Cl)c(F)c2)C1 [Compound 311]	90	72
C[C@H](OCc1ccccc1)[C@H](N)C(=O)N1CCn2c(nc(-c3ccc(F)cc3)c2Nc2ccc(Cl)c(F)c2)C1 [Compound 312]	1640	897
CC(C)[C@H](N)C(=O)N1CCn2c(nc(-c3ccc(F)cc3)c2Nc2ccc(Cl)c(F)c2)C1 [Compound 313]	20	4
C[C@H](N)C(=O)N1CCn2c(nc(-c3ccc(F)cc3)c2Nc2ccc(Cl)c(F)c2)C1 [Compound 314]	30	20
N[C@@H](Cc1cscn1)C(=O)N1CCn2c(nc(-c3ccc(F)cc3)c2Nc2ccc(Cl)c(F)c2)C1 [Compound 315]	20	8
N[C@@H](Cc1ccc(F)cc1)C(=O)N1CCn2c(nc(-c3ccc(F)cc3)c2Nc2ccc(Cl)c(F)c2)C1 [Compound 316]	20	14
CC(C)[C@@H](N)C(=O)N1CCn2c(nc(-c3ccc(F)cc3)c2Nc2ccc(Cl)c(F)c2)C1 [Compound 318]	150	98
N[C@@H](Cc1ccc(F)c(F)c1)C(=O)N1CCn2c(nc(-c3ccc(F)cc3)c2Nc2ccc(Cl)c(F)c2)C1 [Compound 319]	40	27
CNC(C)(C)C(=O)N1CCn2c(nc(-c3ccc(F)cc3)c2Nc2ccc(Cl)c(F)c2)C1 [Compound 320]	170	103
O=C([C@@H]1CCN1)N1CCn2c(nc(-c3ccc(F)cc3)c2Nc2ccc(Cl)c(F)c2)C1 [Compound 321]	20	11
O=C(C1COCCN1)N1CCn2c(nc(-c3ccc(F)cc3)c2Nc2ccc(Cl)c(F)c2)C1 (stereo not drawn) [Compound 323]	1730	1330
N[C@@H](Cc1ccccc1)C(=O)N1CCn2c(nc(-c3ccc(F)cc3)c2Nc2ccc(Cl)c(F)c2)C1 [Compound 324]	30	30
N[C@@H](CC1CCC1)C(=O)N1CCn2c(nc(-c3ccc(F)cc3)c2Nc2ccc(Cl)c(F)c2)C1 [Compound 325]	30	29
CC(C)(C)[C@H](N)C(=O)N1CCn2c(nc(-c3ccc(F)cc3)c2Nc2ccc(Cl)c(F)c2)C1 [Compound 326]	30	22
C[C@@H](N)C(=O)N1CCn2c(nc(-c3ccc(F)cc3)c2Nc2ccc(Cl)c(F)c2)C1 [Compound 327]	30	21
N#Cc1ccc(C[C@H](N)C(=O)N2CCn3c(nc(-c4ccc(F)cc4)c3Nc3ccc(Cl)c(F)c3)C2)cc1 [Compound 328]	340	229
Cc1ccc(Nc2c(-c3ccc(F)cc3)nc3n2CC(C)NC3)cc1 (stereo not drawn) [Compound 329]	150	116

Structure (SMILES)	EC50 (3D7 P. falciparum strain) [nM]	EC50 (W2 strain) [nM]
Cc1ccc(Nc2c(-c3ccncc3)nc3n2CCNC3)cc1 [Compound 354]	6320	564
Cc1ccc(Nc2c(-c3ccc(F)cc3)nc3n2CCN(C(=O)C(Nc2ccc(C(F)(F)F)cc2Cl)C(C)C)C3)cc1 (stereo not drawn) [Compound 355]	2810	2270
O=C([C@H]1CCCO1)N1CCn2c(nc(-c3ccc(F)cc3)c2Nc2ccc(Cl)c(F)c2)C1 [Compound 356]	1260	872
Cn1cc(CC(=O)N2CCn3c(nc(-c4ccc(F)cc4)c3Nc3ccc(Cl)c(F)c3)C2)c2ccccc21 [Compound 357]	7490	4710
CC(C)C[C@H](O)C(=O)N1CCn2c(nc(-c3ccc(F)cc3)c2Nc2ccc(Cl)c(F)c2)C1 [Compound 358]	130	49
O=C(CCc1ccccc1F)N1CCn2c(nc(-c3ccc(F)cc3)c2Nc2ccc(Cl)c(F)c2)C1 [Compound 359]	140	108
CC(C)[C@@H](O)C(=O)N1CCn2c(nc(-c3ccc(F)cc3)c2Nc2ccc(Cl)c(F)c2)C1 [Compound 360]	30	15
Cc1ccc(Nc2c(-c3ccc(F)cc3)nc3n2CCN(C(=O)CNc2cccc(Cl)c2)C3)cc1 [Compound 361]	2350	1140
Cc1ccc(NCC(=O)N2CCn3c(nc(-c4ccc(F)cc4)c3Nc3ccc(C)cc3)C2)cc1 [Compound 362]	810	203
O=C(Cc1ccc(Cl)c(F)c1)N1CCn2c(nc(-c3ccc(F)cc3)c2Nc2ccc(Cl)c(F)c2)C1 [Compound 363]	1750	1130
COc1ccc(NC(C)(C)C(=O)N2CCn3c(nc(-c4ccc(F)cc4)c3Nc3ccc(C)cc3)C2)cc1 [Compound 364]	4950	3740
NC(C(=O)N1CCn2c(nc(-c3ccc(F)cc3)c2Nc2ccc(Cl)c(F)c2)C1)c1ccc(Cl)c(Cl)c1 (stereo not drawn) [Compound 365]	610	260
Cc1ccc(Nc2c(-c3ccc(F)cc3)nc3n2CCN(C(=O)C(C)(N)C(F)(F)F)C3)cc1 (stereo not drawn) [Compound 366]	3470	1820
O=C(C1CNCCO1)N1CCn2c(nc(-c3ccc(F)cc3)c2Nc2ccc(Cl)c(F)c2)C1 (stereo not drawn) [Compound 367]	190	148
NC(C(=O)N1CCn2c(nc(-c3ccc(F)cc3)c2Nc2ccc(Cl)c(F)c2)C1)c1ccc(C(F)(F)F)cc1 (stereo not drawn) [Compound 368]	520	286
NC(C(=O)N1CCn2c(nc(-c3ccc(F)cc3)c2Nc2ccc(Cl)c(F)c2)C1)c1ccc(Cl)cc1 (stereo not drawn) [Compound 369]	110	84
O=C(c1ccc2ncccc2c1)N1CCn2c(nc(-c3ccc(F)cc3)c2Nc2ccc(Cl)c(F)c2)C1 [Compound 370]	4350	8340
Cc1ccc(Nc2c(-c3ccc(F)cc3)nc3n2CCN(C(=O)C(Nc2ccc(C)cc2)c2ccccc2)C3)cc1 (stereo not drawn) [Compound 371]	1520	1280
CN1CCOC(C(=O)N2CCn3c(nc(-c4ccc(F)cc4)c3Nc3ccc(Cl)c(F)c3)C2)C1 (stereo not drawn) [Compound 372]	690	554
Cc1ccc(Nc2c(-c3ccc(F)cc3)nc3n2CCN(C(=O)C(C)(C)Nc2ccccc2)C3)cc1 [Compound 374]	590	248

Structure (SMILES)	EC50 (3D7 P. falciparum strain) [nM]	EC50 (W2 strain) [nM]
CC(C)(N)C(=O)N1CCn2c(nc(-c3cccc(F)c3)c2Nc2ccc(F)cc2C(F)(F)F)C1 [Compound 375]	1130	679
CN[C@H](C(=O)N1CCn2c(nc(-c3ccc(F)cc3)c2Nc2ccc(C)cc2)C1)C(C)C [Compound 376]	60	79
CN[C@@H](CC(C)C)C(=O)N1CCn2c(nc(-c3ccc(F)cc3)c2Nc2ccc(C)cc2)C1 [Compound 378]	60	63
Cc1ccc(Nc2c(-c3ccc(F)c(F)c3)nc3n2CCN(C(=O)C(C)(C)N)C3)cc1 [Compound 379]	60	50
Cc1ccc(Nc2c(-c3ccc(F)cc3)nc3n2CCN(C(=O)C(C)Nc2c(C)cccc2C)C3)cc1 (stereo not drawn) [Compound 380]	1130	1790
COc1ccccc1-c1nc2n(c1Nc1ccc(C)cc1)CCN(C(=O)CN)C2 [Compound 381]	1970	1800
Cc1ccc(Nc2c(-c3ccncc3)nc3n2CCN(C(=O)CN)C3)cc1 [Compound 382]	1050	1040
Cc1ccc(Nc2c(-c3cccc(Cl)c3)nc3n2CCN(C(=O)CN)C3)cc1 [Compound 383]	50	32
Cc1ccc(Nc2c(-c3ccc(F)cc3)nc3n2CCN(C(=O)CNc2ccc(C)cc2C)C3)cc1 [Compound 384]	470	889
Cc1ccc(Nc2c(-c3ccc(F)c(F)c3)nc3n2CCN(C(=O)CN)C3)cc1 [Compound 385]	20	20
Cc1ccc(Nc2c(-c3ccc(F)cc3)nc3n2CCN(C(=O)C(C)(C)Nc2ccc(C)cc2)C3)cc1 [Compound 386]	2620	3030
Cc1ccc(Nc2c(-c3ccc(F)cc3F)nc3n2CCN(C(=O)CN)C3)cc1 [Compound 387]	110	80
Cc1ccc(Nc2c(-c3ccc(F)cc3)nc3n2CCN(C(=O)[C@H](C)N(C)Cc2ccccc2)C3)cc1 [Compound 388]	3220	1770
CCCC[C@H](NC)C(=O)N1CCn2c(nc(-c3ccc(F)cc3)c2Nc2ccc(C)cc2)C1 [Compound 389]	60	51
Cc1ccc(CC(=O)N2CCn3c(nc(-c4ccc(F)c(F)c4)c3Nc3ccc(C)cc3)C2)cc1 [Compound 390]	30	28
Cc1ccc(Nc2c(-c3ccc(F)c(F)c3)nc3n2CCN(C(=O)[C@H](O)C(C)C)C3)cc1 [Compound 391]	10	7
CCC[C@H](NC)C(=O)N1CCn2c(nc(-c3ccc(F)cc3)c2Nc2ccc(C)cc2)C1 [Compound 392]	30	39
CC(C)C[C@@H](N)C(=O)N1CCn2c(nc(-c3ccc(F)cc3)c2Nc2ccc(Cl)c(F)c2)C1 [Compound 394]	50	43
Cc1ccc(Nc2c(-c3ccc(F)cc3F)nc3n2CCN(C(=O)C(C)(C)N)C3)cc1 [Compound 395]	440	246
Cc1ccc(Nc2c(-c3ccc(F)c(F)c3)nc3n2CCN(C(=O)[C@@H](N)C(C)C)C3)cc1 [Compound 396]	30	22
